In US20170281582A1, “ENHANCER FOR EATING ACTIVITY AND/OR GASTROINTESTINAL ACTIVITY” (KYOWA HAKKO BIO CO., LTD., priority 2012, published 2017):

Assays:
[1] = test system: ddY mice; assay: Small intestinal transit (Evans Blue mobility), gastrointestinal motility; format: in vivo; settings: ddY mice fasted 18 hours, 30 minutes before test meal
Protocol: The symbol ** in the figure means a statistically significant difference (P<0.01) when comparing ornithine hydrochloride-administered group (3 g/kg) with control group, and the symbol in the figure means a statistically significant difference (P<0.001) when comparing ornithine hydrochloride-administered group (5 g/kg) with control group. Statistical processing was performed by using ANOVA and Fisher's test.
Gastrointestinal motility function was examined through small intestinal transit measurements according to the following testing method.
Male, 5 to 7-week ddY mice were used. […] After 30 minutes, the mice were orally administered with a dyed test meal (Evans Blue 5%, carboxymethyl cellulose 1%). The animals were killed by cervical dislocation after 5 minutes, and immediately cut open in the stomach to remove the whole small intestine. For evaluation of the gastrointestinal motility, the full length of the small intestine, and the length from the pylorus to the farthest point marked by the movement of Evans Blue were measured. Evans Blue mobility was calculated according to the following equation, and used as an index.
Mobility (%)=(the length from the pylorus to the farthest point marked by the movement of Evans Blue/the full length of small intestine)×100

[2] = test system: Wistar rats; assay: Blood growth hormone (GH) over time after intraduodenal administration; format: in vivo
Protocol: Statistical processing was performed by using ANOVA and Fisher's test.
Male, 8 to 9-week Wistar rats were used.

Row | Compound | small intestinal transit compared to the control group ([1]; oral 3 g/kg (body weight), P<0.01 (FIG. 3)) | small intestinal transit compared to the control group ([1]; oral 5 g/kg (body weight), P<0.001 (FIG. 3)) | effect of the antagonist alone on blood GH ([2]; D-Lys3-GHRP-6 0.8 mg/kg i.v. alone) | GH concentration increasing effect of ornithine in presence of ghrelin antagonist ([2]; D-Lys3-GHRP-6 0.8 mg/kg i.v. plus ornithine hydrochloride 5 g/kg, vs ornithine hydrochloride alone, P<0.05 (FIG. 1))
1 | Cl.NCCC[C@H](N)C(=O)O [ornithine hydrochloride, L-ornithine hydrochloride] | significantly increased | significantly increased |  | 
2 | D-Lys3-GHRP-6 |  |  | does not show the effect | inhibited
